Measured values from BigSolDB 2.1.

[1] = in tetrachloromethane, 283.15 K
[2] = in tetrachloromethane, 288.15 K
[3] = in tetrachloromethane, 293.15 K
[4] = in tetrachloromethane, 298.15 K
[5] = in tetrachloromethane, 303.15 K
[6] = in tetrachloromethane, 308.15 K
[7] = in tetrachloromethane, 313.15 K
[8] = in tetrachloromethane, 318.15 K
[9] = in tetrachloromethane, 323.15 K
[10] = in tetrachloromethane, 328.15 K

Compound: O=C1OC(=O)c2c(Cl)cccc21
- solubility (mole fraction) (in acetonitrile, 283.15 K): 0.0676
- solubility (mole fraction) (in acetonitrile, 288.15 K): 0.0793
- solubility (mole fraction) (in acetonitrile, 293.15 K): 0.092
- solubility (mole fraction) (in acetonitrile, 298.15 K): 0.106
- solubility (mole fraction) (in acetonitrile, 303.15 K): 0.123
- solubility (mole fraction) (in acetonitrile, 308.15 K): 0.142
- solubility (mole fraction) (in acetonitrile, 313.15 K): 0.165
- solubility (mole fraction) (in acetonitrile, 318.15 K): 0.193
- solubility (mole fraction) (in acetonitrile, 323.15 K): 0.225
- solubility (mole fraction) (in acetonitrile, 328.15 K): 0.263
- solubility (mole fraction) (in cyclohexane, 283.15 K): 0.00042
- solubility (mole fraction) (in cyclohexane, 288.15 K): 0.000507
- solubility (mole fraction) (in cyclohexane, 293.15 K): 0.000554
- solubility (mole fraction) (in cyclohexane, 298.15 K): 0.000764
- solubility (mole fraction) (in cyclohexane, 303.15 K): 0.000909
- solubility (mole fraction) (in cyclohexane, 308.15 K): 0.00108
- solubility (mole fraction) (in cyclohexane, 313.15 K): 0.00136
- solubility (mole fraction) (in cyclohexane, 318.15 K): 0.00176
- solubility (mole fraction) (in cyclohexane, 323.15 K): 0.00222
- solubility (mole fraction) (in cyclohexane, 328.15 K): 0.00277
- solubility (mole fraction) (in methanol, 283.15 K): 0.0637
- solubility (mole fraction) (in methanol, 288.15 K): 0.0698
- solubility (mole fraction) (in methanol, 293.15 K): 0.0766
- solubility (mole fraction) (in methanol, 298.15 K): 0.09
- solubility (mole fraction) (in methanol, 303.15 K): 0.0968
- solubility (mole fraction) (in methanol, 308.15 K): 0.104
- solubility (mole fraction) (in methanol, 313.15 K): 0.116
- solubility (mole fraction) (in methanol, 318.15 K): 0.126
- solubility (mole fraction) (in methanol, 323.15 K): 0.144
- solubility (mole fraction) (in methanol, 328.15 K): 0.161
- solubility (mole fraction) (in methyl acetate, 283.15 K): 0.0882
- solubility (mole fraction) (in methyl acetate, 288.15 K): 0.0987
- solubility (mole fraction) (in methyl acetate, 293.15 K): 0.112
- solubility (mole fraction) (in methyl acetate, 298.15 K): 0.123
- solubility (mole fraction) (in methyl acetate, 303.15 K): 0.145
- solubility (mole fraction) (in methyl acetate, 308.15 K): 0.157
- solubility (mole fraction) (in methyl acetate, 313.15 K): 0.176
- solubility (mole fraction) (in methyl acetate, 318.15 K): 0.198
- solubility (mole fraction) (in methyl acetate, 323.15 K): 0.223
- solubility (mole fraction) (in methyl acetate, 328.15 K): 0.252
- solubility (mole fraction) (in tert-amyl alcohol, 283.15 K): 0.00423
- solubility (mole fraction) (in tert-amyl alcohol, 288.15 K): 0.00548
- solubility (mole fraction) (in tert-amyl alcohol, 293.15 K): 0.00677
- solubility (mole fraction) (in tert-amyl alcohol, 298.15 K): 0.00875
- solubility (mole fraction) (in tert-amyl alcohol, 303.15 K): 0.0113
- solubility (mole fraction) (in tert-amyl alcohol, 308.15 K): 0.0125
- solubility (mole fraction) (in tert-amyl alcohol, 313.15 K): 0.0146
- solubility (mole fraction) (in tert-amyl alcohol, 318.15 K): 0.0184
- solubility (mole fraction) (in tert-amyl alcohol, 323.15 K): 0.0228
- solubility (mole fraction) (in tert-amyl alcohol, 328.15 K): 0.0288
- solubility (mole fraction) [1]: 0.00307
- solubility (mole fraction) [2]: 0.004
- solubility (mole fraction) [3]: 0.00497
- solubility (mole fraction) [4]: 0.00605
- solubility (mole fraction) [5]: 0.00729
- solubility (mole fraction) [6]: 0.00873
- solubility (mole fraction) [7]: 0.0104
- solubility (mole fraction) [8]: 0.0125
- solubility (mole fraction) [9]: 0.0146
- solubility (mole fraction) [10]: 0.0177

Compound: O=C1OC(=O)c2cc(Cl)ccc21
- solubility (mole fraction) (in acetonitrile, 283.15 K): 0.102
- solubility (mole fraction) (in acetonitrile, 288.15 K): 0.121
- solubility (mole fraction) (in acetonitrile, 293.15 K): 0.143
- solubility (mole fraction) (in acetonitrile, 298.15 K): 0.167
- solubility (mole fraction) (in acetonitrile, 303.15 K): 0.194
- solubility (mole fraction) (in acetonitrile, 308.15 K): 0.221
- solubility (mole fraction) (in acetonitrile, 313.15 K): 0.249
- solubility (mole fraction) (in acetonitrile, 318.15 K): 0.277
- solubility (mole fraction) (in acetonitrile, 323.15 K): 0.304
- solubility (mole fraction) (in acetonitrile, 328.15 K): 0.331
- solubility (mole fraction) (in cyclohexane, 283.15 K): 0.000482
- solubility (mole fraction) (in cyclohexane, 288.15 K): 0.000684
- solubility (mole fraction) (in cyclohexane, 293.15 K): 0.000895
- solubility (mole fraction) (in cyclohexane, 298.15 K): 0.00109
- solubility (mole fraction) (in cyclohexane, 303.15 K): 0.00139
- solubility (mole fraction) (in cyclohexane, 308.15 K): 0.00161
- solubility (mole fraction) (in cyclohexane, 313.15 K): 0.00203
- solubility (mole fraction) (in cyclohexane, 318.15 K): 0.00246
- solubility (mole fraction) (in cyclohexane, 323.15 K): 0.00315
- solubility (mole fraction) (in cyclohexane, 328.15 K): 0.00399
- solubility (mole fraction) (in methanol, 283.15 K): 0.0848
- solubility (mole fraction) (in methanol, 288.15 K): 0.0944
- solubility (mole fraction) (in methanol, 293.15 K): 0.118
- solubility (mole fraction) (in methanol, 298.15 K): 0.136
- solubility (mole fraction) (in methanol, 303.15 K): 0.167
- solubility (mole fraction) (in methanol, 308.15 K): 0.196
- solubility (mole fraction) (in methanol, 313.15 K): 0.228
- solubility (mole fraction) (in methanol, 318.15 K): 0.266
- solubility (mole fraction) (in methanol, 323.15 K): 0.309
- solubility (mole fraction) (in methanol, 328.15 K): 0.356
- solubility (mole fraction) (in methyl acetate, 283.15 K): 0.134
- solubility (mole fraction) (in methyl acetate, 288.15 K): 0.163
- solubility (mole fraction) (in methyl acetate, 293.15 K): 0.19
- solubility (mole fraction) (in methyl acetate, 298.15 K): 0.216
- solubility (mole fraction) (in methyl acetate, 303.15 K): 0.241
- solubility (mole fraction) (in methyl acetate, 308.15 K): 0.269
- solubility (mole fraction) (in methyl acetate, 313.15 K): 0.296
- solubility (mole fraction) (in methyl acetate, 318.15 K): 0.33
- solubility (mole fraction) (in methyl acetate, 323.15 K): 0.362
- solubility (mole fraction) (in methyl acetate, 328.15 K): 0.407
- solubility (mole fraction) (in tert-amyl alcohol, 283.15 K): 0.00738
- solubility (mole fraction) (in tert-amyl alcohol, 288.15 K): 0.00942
- solubility (mole fraction) (in tert-amyl alcohol, 293.15 K): 0.0129
- solubility (mole fraction) (in tert-amyl alcohol, 298.15 K): 0.0166
- solubility (mole fraction) (in tert-amyl alcohol, 303.15 K): 0.0219
- solubility (mole fraction) (in tert-amyl alcohol, 308.15 K): 0.0274
- solubility (mole fraction) (in tert-amyl alcohol, 313.15 K): 0.0376
- solubility (mole fraction) (in tert-amyl alcohol, 318.15 K): 0.0489
- solubility (mole fraction) (in tert-amyl alcohol, 323.15 K): 0.065
- solubility (mole fraction) (in tert-amyl alcohol, 328.15 K): 0.0823
- solubility (mole fraction) [1]: 0.00888
- solubility (mole fraction) [2]: 0.0103
- solubility (mole fraction) [3]: 0.0128
- solubility (mole fraction) [4]: 0.0142
- solubility (mole fraction) [5]: 0.0169
- solubility (mole fraction) [6]: 0.0191
- solubility (mole fraction) [7]: 0.0212
- solubility (mole fraction) [8]: 0.0233
- solubility (mole fraction) [9]: 0.0254
- solubility (mole fraction) [10]: 0.0274
